# Measurements from ChEMBL document CHEMBL1201862, “PubChem BioAssay data set” (2004).
#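 Following 48 hours of exposure in 96-well plates, responses at five concentrations were used to interpolate endpoints linearly. The concentration for 50% growth inhibition is given as GI50.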 The source made the active and inactive calls. Cut-off read from the data, not from the text of the source: active = GI50 up to about 1.1 µM and inactive = higher.
# Columns and labels:
# Experiment in all cases: NCI anticancer screen, dose series, 48 h
# UACC-62 = tested on: UACC-62
# DU-145 = tested on: DU-145
# HCT-15 = tested on: HCT-15
# A498 = tested on: A498
# CCRF-CEM = tested on: CCRF-CEM
# IGROV-1 = tested on: IGROV-1
# T47D = tested on: T47D
# SF-539 = tested on: SF-539
# NCI-H226 = tested on: NCI-H226
# SF-268 = tested on: SF-268
# UACC-257 = tested on: UACC-257
# SNB-75 = tested on: SNB-75
# NCI-H23 = tested on: NCI-H23
# KM12 = tested on: KM12
# NCI/ADR-RES = tested on: NCI/ADR-RES
# A549 = tested on: A549
# MDA-MB-231 = tested on: MDA-MB-231
# RXF 393 = tested on: RXF 393
# Malme-3M = tested on: Malme-3M
# LOX IMVI = tested on: LOX IMVI
Compound,GI50 (UACC-62),GI50 (DU-145),GI50 (HCT-15),GI50 (A498),GI50 (CCRF-CEM),GI50 (IGROV-1),GI50 (T47D),GI50 (SF-539),GI50 (NCI-H226),GI50 (SF-268),GI50 (UACC-257),GI50 (SNB-75),GI50 (NCI-H23),GI50 (KM12),GI50 (NCI/ADR-RES),GI50 (A549),GI50 (MDA-MB-231),GI50 (RXF 393),GI50 (Malme-3M),GI50 (LOX IMVI)
CC(C)(C)OC(=O)NC1CC=CCC1NC(=O)OC(C)(C)C (stereo not given),> 100 µM (inactive),> 100 µM (inactive),> 100 µM,> 100 µM (inactive),> 100 µM (inactive),> 100 µM (inactive),> 100 µM (inactive),> 100 µM (inactive),> 100 µM (inactive),> 100 µM (inactive),> 100 µM (inactive),> 100 µM (inactive),> 100 µM (inactive),> 100 µM (inactive),> 100 µM (inactive),> 100 µM (inactive),> 100 µM (inactive),95.5 µM (inactive),> 100 µM (inactive),> 100 µM (inactive)
Cc1nc2ccccc2c(=O)n1NC(=O)c1ccc(CS)cc1,6.58 µM (inactive),28.1 µM (inactive),16.4 µM,11.2 µM (inactive),0.82 µM (active),8.59 µM (inactive),16.7 µM (inactive),12.9 µM (inactive),2.84 µM (inactive),4.06 µM (inactive),20.4 µM (inactive),14.9 µM (inactive),15.6 µM (inactive),15.3 µM (inactive),28.6 µM (inactive),7.48 µM (inactive),13 µM (inactive),> 10 µM (inactive),27.9 µM (inactive),0.145 µM (active)
C=CCN(c1cc(OC)c2[nH]cc(C)c2c1[N+](=O)[O-])S(C)(=O)=O,> 100 µM (inactive),> 100 µM (inactive),> 100 µM,> 100 µM (inactive),> 100 µM (inactive),> 100 µM (inactive),> 100 µM (inactive),> 100 µM (inactive),> 100 µM (inactive),> 100 µM (inactive),> 100 µM (inactive),> 100 µM (inactive),> 100 µM (inactive),> 100 µM (inactive),> 100 µM (inactive),> 100 µM (inactive),> 100 µM (inactive),> 100 µM (inactive),> 100 µM (inactive),> 100 µM (inactive)
CO[C@H]1C[C@H](O[C@H]2CC[C@]3(C=O)[C@H]4CC[C@]5(C)[C@@H](C6=CC(=O)OC6)CC[C@]5(O)[C@@H]4CC[C@]3(O)C2)O[C@H](C)[C@H]1O[C@@H]1O[C@H](CO)[C@@H](O)[C@H](O)[C@H]1O,6.17e-05 µM (active),6.34e-06 µM (active),3.94e-05 µM,5.81e-05 µM (active),> 0.01 µM (active),> 0.01 µM (active),5.53e-05 µM (active),2.03e-05 µM (active),7.85e-05 µM (active),1.19e-05 µM (active),8.22e-05 µM (active),5.1e-05 µM (active),7.87e-06 µM (active),9.1e-05 µM (active),1.15e-05 µM (active),4.46e-06 µM (active),0.000173 µM (active),1.51e-05 µM (active),2.7e-05 µM (active),2.61e-05 µM (active)
